# Test results from publication PMC11355249, “In Silico Identification and Molecular Mechanism of Novel Tyrosinase Inhibitory Peptides Derived from Nacre of Pinctada martensii” (Marine Drugs, 2024).
# Where two headings read alike, the source gives them in different places. Peptide text beside a SMILES is read from it.
# Key:
# [1] = target: T1, tyrosinase (from Mushroom) (Agaricus bisporus, UniProt C7FF04); format: biochemical; details: read-out: IC50 (mM), tyrosinase activity
# Method: (§1) We followed the method of Yu, with a slight modification. L-tyrosine solution (0.5 mg/mL), sample solution, and PBS buffer were sequentially added into the 96-well plate, thoroughly mixed, and then incubated at 37 °C for 10 min, then 20 μL of tyrosinase solution (500 U/mL) was added into each well, followed by immediate placement into the enzyme marker after the reaction at 37 °C for (10 min ± 5 s). The results were analyzed at 475 nm. DPPH and ABTS free-radical-scavenging capacity assays were conducted using kits from Grace Biotechnology Co., Ltd. (Jiangsu, China).
# [2] = target: T1, tyrosinase (from Mushroom); experiment: Inhibition kinetics, Lineweaver-Burk double inverse plot and secondary plots; format: biochemical; details: read-out: inhibition constant on the free enzyme, Ki; substrate L-tyrosine; peptide 0, 0.3, 0.6, 1.2 mM
# Source text: Based on the observation that the inhibition of tyrosinase by the synthetic peptide AHYYD was reversible, the type of inhibition was further elucidated by constructing a Lineweaver–Burk double inverse plot of the enzymatic reaction rate against the concentration of the substrate (L-tyrosine). In this plot, the intercept with the Y-axis represents 1/Vmax, while the intercept with the X-axis represents −1/Km. […] The slope of the line increased with the rise in synthetic peptide concentration, indicating a mixed type of inhibition. By using the quadratic plotting method, the slopes of the four straight lines in the Lineweaver–Burk double inverse plot were plotted against the synthetic peptide concentration.
# Keeping the L-tyrosine concentration constant at 0.5 mg/mL, the concentrations of the synthetic peptide and tyrosinase were varied. The change in the OD475 absorbance value was continuously monitored at 37 °C after mixing. The enzyme concentration is plotted on the horizontal axis, while the rate of absorbance change is plotted on the vertical axis. Under the conditions of varying the peptide concentration and substrate concentration while keeping the tyrosinase solution constant, the reciprocal of the substrate concentration was plotted on the horizontal axis, and the reciprocal of the rate of absorbance change was plotted on the vertical ax.
# B16F10 cells [3] = experiment: Cell viability, CCK-8 assay; format: cell-based, mouse; details: 15–1200 μM, 48 h
# Method: The B16F10 cells were obtained from FengHui Biotechnology Co., Ltd. (Hunan, China). B16F10 cell cultures from generations 10–25 were grown in medium (DMEM supplemented with 10% fetal bovine serum, 1% antibiotic–antifungal solution) in a 5% CO2 incubator at 37 °C.
# Cell viability was assessed using the Cell Counting Kit-8 (CCK-8) assay. During the logarithmic growth phase, 100 µL of cell suspension was dispensed into 96-well plates, with 3000 cells per well, and the supernatant was removed after incubation at 37 °C for 24 h. Wells containing 100 µL of medium served as blank controls. Determination of viability after 48 h of sample treatment.
# [4] = test system: tyrosinase activity in B16F10 cells; experiment: Intracellular tyrosinase activity (L-DOPA, 475 nm); format: cell-based, mouse; details: B16F10, Kojic acid 350 μM, 48 h
# Method: The cells in the logarithmic growth phase were seeded at a density of 2 × 10^5 cells per well in 6-well plates. After 24 h of culture, the supernatant was removed. […] After 48 h of incubation, the cells were lysed, and the cell lysates were centrifuged at 12,000 rpm for 10 min. The reaction mixture consisted of 50 µL of cell lysate supernatant, 50 µL of 1 mg/mL L-DOPA, and 50 µL of PBS buffer. The mixture was incubated at 37 °C for 1 h. The […] formation level was then measured spectrophotometrically at 475 nm. Tyrosinase activity was expressed as a percentage of the blank control.
# [5] = test system: melanin content of B16F10 cells; experiment: Melanin content determination; format: cell-based, mouse; details: B16F10, Kojic acid 350 μM, 48 h
# Method: The cell culture stage for melanin content determination was as follows: the cells were washed twice with PBS buffer after 48 h of peptide treatment. Trypsin digestion was performed, and the cells were collected. The […] was removed by centrifugation for 5 min and the precipitate was lysed by dissolving it in 1 mol/L NaOH containing 10% DMSO for 1 h at 80 °C. Subsequently, the cell lysate was centrifuged at 12,000 rpm for 10 min. A total of 200 µL of the supernatant was transferred to a 96-well plate, and the absorbance was measured at 405 nm. The melanin content was then expressed as a percentage of the control group.
# B16F10 cells [6] = experiment: Antioxidant enzyme activity (CAT, GSH-Px, SOD) by kit; format: cell-based, mouse; details: B16F10, positive control 350 μM
# Method: (§2) The cell culture and treatment methods were the same as those described in Section 3.12. The activities of catalase (CAT), glutathione peroxidase (GSH-Px), and superoxide dismutase (SOD) were determined using the assay kit from Nanjing Jianjian Bioengineering Research Institute (Nanjing, China). The ROS content was determined using the method provided by Biyuntian Bio-Technology Company Limited (Shanghai, China).
# [7] = ABTS free-radical-scavenging capacity assay (kit); details: synthetic peptides
# Method: as §1
# B16F10 cells [8] = experiment: Intracellular ROS content; format: cell-based, mouse; details: B16F10, 75 μM
# Method: as §2
# T1 sequence (C7FF04 1-392): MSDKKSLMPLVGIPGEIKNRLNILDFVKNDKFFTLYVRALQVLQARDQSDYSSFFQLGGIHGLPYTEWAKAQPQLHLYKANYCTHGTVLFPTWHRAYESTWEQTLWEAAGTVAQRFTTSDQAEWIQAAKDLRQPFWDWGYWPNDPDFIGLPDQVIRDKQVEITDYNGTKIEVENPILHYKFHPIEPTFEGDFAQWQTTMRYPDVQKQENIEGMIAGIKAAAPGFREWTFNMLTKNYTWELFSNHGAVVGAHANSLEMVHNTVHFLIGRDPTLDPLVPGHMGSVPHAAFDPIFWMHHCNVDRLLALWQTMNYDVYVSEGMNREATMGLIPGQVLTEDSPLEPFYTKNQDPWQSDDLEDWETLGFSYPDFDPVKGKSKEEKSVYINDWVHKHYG
smiles,measurement,setting,value
"C[C@H](N)C(=O)N[C@@H](Cc1c[nH]cn1)C(=O)N[C@@H](Cc1ccc(O)cc1)C(=O)N[C@@H](Cc1ccc(O)cc1)C(=O)N[C@@H](CC(=O)O)C(=O)O [AHYYD, Ala-His-Tyr-Tyr-Asp] (H-AHYYD-OH)",IC50,[1],2.01 ± 0.088 mM
same,Ki,[2],601 µM
same,viability of B16F10 cells compared to the control group,B16F10 cells [3],no significant difference
"CC[C@H](C)[C@H](NC(=O)[C@@H]1CCCN1C(=O)[C@@H](N)CCCCN)C(=O)N[C@@H](Cc1c[nH]c2ccccc12)C(=O)N[C@H](C(=O)O)[C@@H](C)O [KPIWT, Lys-Pro-Ile-Trp-Thr] (H-KPIWT-OH; N-terminus and C-terminus assumed)",IC50,"[1]; synthetic peptides, Kojic acid positive control",> 10 mM
O=c1cc(CO)occ1O [Kojic acid],reduction of intracellular tyrosinase activity,[4],19.51%
same,reduction of intracellular melanin content,[5],18.54%
same,increase of GSH-Px activity,B16F10 cells [6],52.85%
same,increase of SOD activity,B16F10 cells [6],68.92%
"C[C@@H](O)[C@H](N)C(=O)N[C@@H](Cc1ccccc1)C(=O)N[C@@H](CO)C(=O)NCC(=O)N[C@@H](CC(N)=O)C(=O)N[C@@H](Cc1ccc(O)cc1)C(=O)N1CCC[C@H]1C(=O)O [TFSGNYP, Thr-Phe-Ser-Gly-Asn-Tyr-Pro] (H-TFSGNYP-OH)",IC50,[1],> 5 mM
same,IC50 for ABTS clearance,[7],278.5 µg/mL
CC1=C(/C=C/C(C)=C/C=C/C(C)=C/C(=O)O)C(C)(C)CCC1 [tretinoin],"intracellular ROS levels, % of the untreated group",B16F10 cells [8],65.44%
